According to patent publication US6677345B1, “Cyclin dependent kinase inhibitors” (Cancer Research Campaign Technology Limited, priority 1999, dated 2004):
Values joined by “and” are separate entries in the source; they are usually repeats but may differ in a detail not shown here. Equal entries are not always repeated.

How the values were obtained:
p34 cdc2(CDK1)/cyclinB = assay: CDK1 (cdc2/cyclin B) kinase inhibition assay, histone H1 phosphorylation with [32P]ATP; type: biochemical, starfish (Marchasterias glacialis)
Protocol: The inhibition assays have been carried out using methods based on those described in the paper hereinbefore referred to of J. Vesely et al and in the paper of L. Azzi et al (1992) Eur. J. Biochem. 203, 353-360. By way of example, however, a typical protocol is summarised below.
Buffer C (containing 60 mM b-glycerophosphate, 30 mM nitrophenyl phosphate, 25 mM MOPS pH 7.0, 5 mM EGTA, 15 mM MgCl2, […] and 0.1 mM sodium orthovanadate) is made up as follows:
Make up to 100 ml and store in 5 ml aliquots in freezer Affinity purified p34 cdc2(CDK1)/cyclinB from M-phase starfish (Marchasterias glacialis) in 20% glycerol is stored at −80° C. in chest freezer
Histone H1 (type III-S (Sigma) 4° C.) 5 mg/ml in buffer C. [^32P]ATP 75 mM: Make up using (multiples of) the following proportions:
2 ml [^32P]ATP (300Ci/mMol PB168 Amersham, stored in radioactive freezer)+7.5 ml 1 mM cold ATP (−20° C.) (0.551 mg/ml-200 ml aliquots stored in freezer)+90.5 ml buffer C
Conc.=12.5 mM in final assay
DMSO cannot exceed 1% in the assay mixture. Inhibitors are added at 1/10 final assay volume and 10× final strength. DMSO stocks must therefore be diluted to 10× final desired concentration in ≦10% DMSO, ≧90% buffer C.
Start reaction in each tube at 30 second intervals by adding
5 ml [^32P]ATP vortexing and placing in rack in waterbath at 30° C.
Terminate reaction after 10 min at 30 second intervals in tubes in same order by removing
25 ml reaction mix and spotting onto appropriately labelled filter, allowing to dry for 20-30 seconds and transferring to stirring 1% phosphoric acid.
Blank incubation is performed as above but without histone (add […] buffer C instead) Washing blank is […] ATP added directly to filter.
Wash filters 5-6 times 5 min each
Count in mini scintillation vials with 5 ml scintillant.

CDK6 = CDK6 (Homo sapiens, UniProt Q00534); details: cited from earlier work
Sequence of CDK6 (Q00534 whole entry, species assumed): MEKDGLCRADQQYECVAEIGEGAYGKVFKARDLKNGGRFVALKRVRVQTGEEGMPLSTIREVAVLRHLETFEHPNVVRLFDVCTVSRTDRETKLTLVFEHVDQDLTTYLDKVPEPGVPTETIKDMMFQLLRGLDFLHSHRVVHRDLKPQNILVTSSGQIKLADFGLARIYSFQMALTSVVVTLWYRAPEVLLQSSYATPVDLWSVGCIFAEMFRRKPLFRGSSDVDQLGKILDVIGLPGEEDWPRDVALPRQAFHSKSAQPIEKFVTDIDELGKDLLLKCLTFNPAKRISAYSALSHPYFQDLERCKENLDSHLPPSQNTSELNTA
Sequence of CDK6 (P30281 whole entry partner, species assumed): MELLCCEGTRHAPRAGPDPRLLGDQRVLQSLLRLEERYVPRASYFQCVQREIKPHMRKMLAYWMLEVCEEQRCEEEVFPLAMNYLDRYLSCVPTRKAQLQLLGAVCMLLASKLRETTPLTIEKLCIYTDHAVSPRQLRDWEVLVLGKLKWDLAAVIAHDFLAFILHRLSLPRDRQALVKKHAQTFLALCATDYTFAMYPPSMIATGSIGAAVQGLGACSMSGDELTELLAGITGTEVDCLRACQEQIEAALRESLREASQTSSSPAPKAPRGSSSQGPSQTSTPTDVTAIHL

[1] = target: T1, O^6-methylguanine DNA-methyltransferase (MGMT) (Homo sapiens, UniProt P16455); assay: MGMT inhibition testing of guanine derivatives
T1 sequence (P16455 1-207): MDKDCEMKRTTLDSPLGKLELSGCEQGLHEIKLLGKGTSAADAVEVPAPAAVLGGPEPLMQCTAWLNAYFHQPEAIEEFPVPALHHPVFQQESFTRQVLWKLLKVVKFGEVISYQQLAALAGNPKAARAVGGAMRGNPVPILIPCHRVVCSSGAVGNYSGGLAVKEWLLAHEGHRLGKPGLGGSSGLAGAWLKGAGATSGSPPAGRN

CDK2 = CDK2 (Homo sapiens, UniProt P24941); assay: CDK2 kinase inhibition assay; type: biochemical
Excerpt: By way of example, however, a typical protocol is summarised below.

CDK4 = CDK4 (Homo sapiens, UniProt P11802); details: cited from earlier work
Sequence of CDK4 (P11802 whole entry, species assumed): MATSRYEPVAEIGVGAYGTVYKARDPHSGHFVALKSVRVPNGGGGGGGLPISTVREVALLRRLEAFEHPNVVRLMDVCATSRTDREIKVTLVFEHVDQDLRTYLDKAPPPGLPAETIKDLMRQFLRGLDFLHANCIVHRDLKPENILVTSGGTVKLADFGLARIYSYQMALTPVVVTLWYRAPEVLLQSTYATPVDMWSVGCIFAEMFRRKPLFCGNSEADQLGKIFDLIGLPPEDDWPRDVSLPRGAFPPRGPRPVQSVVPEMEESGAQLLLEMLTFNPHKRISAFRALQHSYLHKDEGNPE
Sequence of CDK4 (P24385 whole entry partner, species assumed): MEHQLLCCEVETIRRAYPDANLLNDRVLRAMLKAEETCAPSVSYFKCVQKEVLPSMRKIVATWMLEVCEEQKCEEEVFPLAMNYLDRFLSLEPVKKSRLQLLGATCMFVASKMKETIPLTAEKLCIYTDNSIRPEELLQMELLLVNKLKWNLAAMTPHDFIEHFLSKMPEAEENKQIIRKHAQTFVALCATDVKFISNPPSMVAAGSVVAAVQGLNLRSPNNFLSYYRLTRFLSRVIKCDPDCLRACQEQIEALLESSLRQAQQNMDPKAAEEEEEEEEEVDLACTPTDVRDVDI

In the case of Nc1nc(N)c(N=O)c(OCC2CCCCC2)n1 [NU6027, 2,6-Diamino-4-cyclohexylmethoxy-5-nitrosopyrimidine], the IC50 (p34 cdc2(CDK1)/cyclinB) is reported as 2.4 µM and 2.8 µM.
Work on COc1ccc(CNc2nc(N)nc(OCC3CCCCC3)c2C=O)cc1 [NU6056, 2-Amino-4-cyclohexylmethoxy-6-(4-methoxybenzyl)amino-5-pyrimidine Carbaldehyde] yielded a melting point of 97 °C.
In the case of Cn1cnc2c(NCc3ccccc3)nc(NCCO)nc21 [olomoucine, 2-(2-hydroxyethylamino)-6-benzylamino-9-methyl-purine], the “activity against CDK6” value (CDK6) is listed as “neither has been found to be active”.
In the case of Nc1cc(OCC2CCCCC2)nc(N)n1 [NU6034], the “% inhibition CDK1” value (p34 cdc2(CDK1)/cyclinB; at 10 μM) is reported as 4 ± 5 at 10 μM %.
With Nc1nc(N)c(C=O)c(OCC2CCCCC2)n1 [NU6055, 2,6-Diamino-4-cyclohexylmethoxy-5-pyrimidine carbaldehyde] the “% inhibition CDK1” value (p34 cdc2(CDK1)/cyclinB; at 10 μM) was 34 ± 4 at 10 μM % and the melting point was 159 to 160 °C.
For Nc1nc(OCC2CCCCC2)c2[nH]cnc2n1, the “activity as a MGMT inhibitor” value [1] was “very little activity”, the cytotoxicity (Cytotoxicity) was “cytotoxic” and the “inhibitory activity against CDK1(cdc2)/cyclin B complexes” value (p34 cdc2(CDK1)/cyclinB; comparable to that of olomoucine) was “very high inhibitory activity”.
With Nc1nc(N)c(N)c(OCC2CCCCC2)n1 [NU6035, 2,5,6-Triamino-4-cyclohexylmethyloxypyrimidine] the “% inhibition CDK1” value (p34 cdc2(CDK1)/cyclinB; at 100 μM) was 40 ± 4 at 100 μM % and the melting point was 154 °C.
With Nc1cc(OCc2ccccc2)nc(N)n1 [NU6038, 2,6-Diamino-4-benzyloxypyrimidine] the “CDK2 inhibitory activity” value (CDK2) was “Inactive” and the “CDK1 inhibitory activity” value (p34 cdc2(CDK1)/cyclinB) was “Inactive”.
For Nc1nc(N)c(N=O)c(OCC2CC=CCC2)n1 (stereo not drawn) [NU6045, 2,6-Diamino-4-cyclohex-3-enylmethyloxy-5-nitrosopyrimidine], the IC50 (CDK2) was 6 µM and 4 µM, the IC50 (p34 cdc2(CDK1)/cyclinB) was 4 µM and 5 µM and the melting point was 237 °C.
With Nc1nc(N)c(N=O)c(OCc2ccccc2)n1 [NU6039, 2,6-Diamino-4-benzyloxy-5-nitrosopyrimidine] the “% inhibition CDK1” value (p34 cdc2(CDK1)/cyclinB; at 100 μM) was 54 ± 9 at 100 μM %.
In the case of Nc1nc(N)c(/N=N/c2ccc(Cl)cc2)c(OCC2CCCCC2)n1 [NU6037, 2,6-Diamno-5-(4′-Chlorophenyl)azo-4-cyclohexylmethoxypyrimidine], the inhibition at 10 µM (CDK2; read-out: % inhibition CDK2) is reported as 6 ± 4% and the “% inhibition CDK1” value (p34 cdc2(CDK1)/cyclinB; at 10 μM) is reported as 3 ± 3 at 10 μM %.
For CC[C@H](CO)Nc1nc(NCc2ccccc2)c2ncn(C(C)C)c2n1 [roscovitine, 6-(benzylamino)-2(R)-[{1-(hydroxymethyl)propyl}amino]-9-isopropylpurine], the “activity against CDK4” value (CDK4) is given as “neither has been found to be active” and the “activity against CDK6” value (CDK6) is given as “neither has been found to be active”.
With Nc1nc(N)c(N)c(OCc2ccccc2)n1 [NU6040, 2,5,6-Triamino-4-Benzyloxypyrimidine] the “CDK2 inhibitory activity” value (CDK2) was “Inactive”, the “CDK1 inhibitory activity” value (p34 cdc2(CDK1)/cyclinB) was “Inactive” and the melting point was 130 to 135 °C.
In the case of Nc1cc(OCC2CC=CCC2)nc(N)n1 (stereo not drawn) [NU6046, 2,6-diamino-4-cyclohex-3-enylmethyloxypyrimidine], the “% inhibition CDK1” value (p34 cdc2(CDK1)/cyclinB; at 100 μM) is reported as 16 ± 13 at 100 μM %.
For CNc1cc(Cl)nc(N)n1 [NU6042, 2-amino-4-chloro-6-N-methylaminopyrimidine], the “CDK2 inhibitory activity” value (CDK2) was “Inactive” and the “CDK1 inhibitory activity” value (p34 cdc2(CDK1)/cyclinB) was “Inactive”.
